# Data: ChEMBL document CHEMBL4152326 (2018)
# Test system: Pseudomonas aeruginosa
# Assay: Antimicrobial activity against Pseudomonas aeruginosa SR24 in presence of human apo-transferrin by broth microdilution method
# Assay type: functional
row,Compound,MIC [µg/mL]
1,CC(C)(O/N=C(\C(=O)N[C@@H]1C(=O)N2C(C(=O)[O-])=C(C[N+]3(CCNC(=O)c4ccc(O)c(O)c4Cl)CCCCC3)CS[C@H]12)c1csc(N)n1)C(=O)O,0.25
2,CC(C)(O/N=C(\C(=O)N[C@@H]1C(=O)N2C(C(=O)[O-])=C(C[N+]3(CCNC(=O)c4ccc(O)c(O)c4Cl)CCCC3)CS[C@H]12)c1nc(N)sc1Cl)C(=O)O,0.25
3,CC(C)(O/N=C(\C(=O)N[C@@H]1C(=O)N2C(C(=O)[O-])=C(C[N+]3(CCCNC(=O)c4ccc(O)c(O)c4Cl)CCCC3)CS[C@H]12)c1csc(N)n1)C(=O)O,0.5
4,CC(C)(O/N=C(\C(=O)N[C@@H]1C(=O)N2C(C(=O)[O-])=C(C[n+]3cc4cc(NC(=O)c5ccc(O)c(O)c5Cl)ccn4c3)CS[C@H]12)c1csc(N)n1)C(=O)O,0.25
5,CN(CC[N+]1(CC2=C(C(=O)[O-])N3C(=O)[C@@H](NC(=O)/C(=N\OC(C)(C)C(=O)O)c4csc(N)n4)[C@H]3SC2)CCCC1)C(=O)c1ccc(O)c(O)c1Cl,0.5
6,C[N+]1(CC2=C(C(=O)[O-])N3C(=O)[C@@H](NC(=O)/C(=N\OC[C@H](NC(=O)c4ccc(O)c(O)c4Cl)C(=O)O)c4csc(N)n4)[C@H]3SC2)CCCC1,0.125

# Test system: Pseudomonas aeruginosa
# Assay: Antimicrobial activity against AmpC overproducing Pseudomonas aeruginosa SR24-12 in presence of human apo-transferrin by broth microdilution method
# Assay type: functional
row,Compound,MIC [µg/mL]
1,CC(C)(O/N=C(\C(=O)N[C@@H]1C(=O)N2C(C(=O)[O-])=C(C[N+]3(CCNC(=O)c4ccc(O)c(O)c4Cl)CCCCC3)CS[C@H]12)c1csc(N)n1)C(=O)O,0.25
2,CC(C)(O/N=C(\C(=O)N[C@@H]1C(=O)N2C(C(=O)[O-])=C(C[N+]3(CCNC(=O)c4ccc(O)c(O)c4Cl)CCCC3)CS[C@H]12)c1nc(N)sc1Cl)C(=O)O,0.5
3,CC(C)(O/N=C(\C(=O)N[C@@H]1C(=O)N2C(C(=O)[O-])=C(C[N+]3(CCCNC(=O)c4ccc(O)c(O)c4Cl)CCCC3)CS[C@H]12)c1csc(N)n1)C(=O)O,0.5
4,CC(C)(O/N=C(\C(=O)N[C@@H]1C(=O)N2C(C(=O)[O-])=C(C[n+]3cc4cc(NC(=O)c5ccc(O)c(O)c5Cl)ccn4c3)CS[C@H]12)c1csc(N)n1)C(=O)O,2
5,CN(CC[N+]1(CC2=C(C(=O)[O-])N3C(=O)[C@@H](NC(=O)/C(=N\OC(C)(C)C(=O)O)c4csc(N)n4)[C@H]3SC2)CCCC1)C(=O)c1ccc(O)c(O)c1Cl,0.5
6,C[N+]1(CC2=C(C(=O)[O-])N3C(=O)[C@@H](NC(=O)/C(=N\OC[C@H](NC(=O)c4ccc(O)c(O)c4Cl)C(=O)O)c4csc(N)n4)[C@H]3SC2)CCCC1,1

# Test system: Pseudomonas aeruginosa
# Assay: Antimicrobial activity against IMP-1 producing Pseudomonas aeruginosa SR27001 in presence of human apo-transferrin by broth microdilution method
# Assay type: functional
row,Compound,MIC [µg/mL]
1,CC(C)(O/N=C(\C(=O)N[C@@H]1C(=O)N2C(C(=O)[O-])=C(C[N+]3(CCNC(=O)c4ccc(O)c(O)c4Cl)CCCCC3)CS[C@H]12)c1csc(N)n1)C(=O)O,1
2,CC(C)(O/N=C(\C(=O)N[C@@H]1C(=O)N2C(C(=O)[O-])=C(C[N+]3(CCNC(=O)c4ccc(O)c(O)c4Cl)CCCC3)CS[C@H]12)c1nc(N)sc1Cl)C(=O)O,1
3,CC(C)(O/N=C(\C(=O)N[C@@H]1C(=O)N2C(C(=O)[O-])=C(C[N+]3(CCCNC(=O)c4ccc(O)c(O)c4Cl)CCCC3)CS[C@H]12)c1csc(N)n1)C(=O)O,1
4,CC(C)(O/N=C(\C(=O)N[C@@H]1C(=O)N2C(C(=O)[O-])=C(C[n+]3cc4cc(NC(=O)c5ccc(O)c(O)c5Cl)ccn4c3)CS[C@H]12)c1csc(N)n1)C(=O)O,> 32
5,CN(CC[N+]1(CC2=C(C(=O)[O-])N3C(=O)[C@@H](NC(=O)/C(=N\OC(C)(C)C(=O)O)c4csc(N)n4)[C@H]3SC2)CCCC1)C(=O)c1ccc(O)c(O)c1Cl,1
6,C[N+]1(CC2=C(C(=O)[O-])N3C(=O)[C@@H](NC(=O)/C(=N\OC[C@H](NC(=O)c4ccc(O)c(O)c4Cl)C(=O)O)c4csc(N)n4)[C@H]3SC2)CCCC1,4

# Test system: Pseudomonas aeruginosa
# Assay: Antimicrobial activity against VIM-2 producing Pseudomonas aeruginosa SBRKM-28 in presence of human apo-transferrin by broth microdilution method
# Assay type: functional
row,Compound,MIC [µg/mL]
1,CC(C)(O/N=C(\C(=O)N[C@@H]1C(=O)N2C(C(=O)[O-])=C(C[N+]3(CCNC(=O)c4ccc(O)c(O)c4Cl)CCCCC3)CS[C@H]12)c1csc(N)n1)C(=O)O,0.125
2,CC(C)(O/N=C(\C(=O)N[C@@H]1C(=O)N2C(C(=O)[O-])=C(C[N+]3(CCNC(=O)c4ccc(O)c(O)c4Cl)CCCC3)CS[C@H]12)c1nc(N)sc1Cl)C(=O)O,0.125
3,CC(C)(O/N=C(\C(=O)N[C@@H]1C(=O)N2C(C(=O)[O-])=C(C[N+]3(CCCNC(=O)c4ccc(O)c(O)c4Cl)CCCC3)CS[C@H]12)c1csc(N)n1)C(=O)O,0.125
4,CN(CC[N+]1(CC2=C(C(=O)[O-])N3C(=O)[C@@H](NC(=O)/C(=N\OC(C)(C)C(=O)O)c4csc(N)n4)[C@H]3SC2)CCCC1)C(=O)c1ccc(O)c(O)c1Cl,0.125
5,C[N+]1(CC2=C(C(=O)[O-])N3C(=O)[C@@H](NC(=O)/C(=N\OC[C@H](NC(=O)c4ccc(O)c(O)c4Cl)C(=O)O)c4csc(N)n4)[C@H]3SC2)CCCC1,0.125

# Test system: Pseudomonas aeruginosa
# Assay: Antimicrobial activity against IMP-1 producing Pseudomonas aeruginosa SR27060 in presence of human apo-transferrin by broth microdilution method
# Assay type: functional
row,Compound,MIC [µg/mL]
1,CC(C)(O/N=C(\C(=O)N[C@@H]1C(=O)N2C(C(=O)[O-])=C(C[N+]3(CCNC(=O)c4ccc(O)c(O)c4Cl)CCCCC3)CS[C@H]12)c1csc(N)n1)C(=O)O,2
2,CC(C)(O/N=C(\C(=O)N[C@@H]1C(=O)N2C(C(=O)[O-])=C(C[N+]3(CCNC(=O)c4ccc(O)c(O)c4Cl)CCCC3)CS[C@H]12)c1nc(N)sc1Cl)C(=O)O,1
3,CC(C)(O/N=C(\C(=O)N[C@@H]1C(=O)N2C(C(=O)[O-])=C(C[N+]3(CCCNC(=O)c4ccc(O)c(O)c4Cl)CCCC3)CS[C@H]12)c1csc(N)n1)C(=O)O,1
4,CC(C)(O/N=C(\C(=O)N[C@@H]1C(=O)N2C(C(=O)[O-])=C(C[n+]3cc4cc(NC(=O)c5ccc(O)c(O)c5Cl)ccn4c3)CS[C@H]12)c1csc(N)n1)C(=O)O,> 32
5,CN(CC[N+]1(CC2=C(C(=O)[O-])N3C(=O)[C@@H](NC(=O)/C(=N\OC(C)(C)C(=O)O)c4csc(N)n4)[C@H]3SC2)CCCC1)C(=O)c1ccc(O)c(O)c1Cl,1
6,C[N+]1(CC2=C(C(=O)[O-])N3C(=O)[C@@H](NC(=O)/C(=N\OC[C@H](NC(=O)c4ccc(O)c(O)c4Cl)C(=O)O)c4csc(N)n4)[C@H]3SC2)CCCC1,4

# Test system: Pseudomonas aeruginosa
# Assay: Antimicrobial activity against Pseudomonas aeruginosa 27060deltaR1 harboring deletion of R1 plasmid in presence of human apo-transferrin by broth microdilution method
# Assay type: functional
row,Compound,MIC [µg/mL]
1,CC(C)(O/N=C(\C(=O)N[C@@H]1C(=O)N2C(C(=O)[O-])=C(C[N+]3(CCNC(=O)c4ccc(O)c(O)c4Cl)CCCCC3)CS[C@H]12)c1csc(N)n1)C(=O)O,1
2,CC(C)(O/N=C(\C(=O)N[C@@H]1C(=O)N2C(C(=O)[O-])=C(C[N+]3(CCNC(=O)c4ccc(O)c(O)c4Cl)CCCC3)CS[C@H]12)c1nc(N)sc1Cl)C(=O)O,1
3,CC(C)(O/N=C(\C(=O)N[C@@H]1C(=O)N2C(C(=O)[O-])=C(C[N+]3(CCCNC(=O)c4ccc(O)c(O)c4Cl)CCCC3)CS[C@H]12)c1csc(N)n1)C(=O)O,0.25
4,CC(C)(O/N=C(\C(=O)N[C@@H]1C(=O)N2C(C(=O)[O-])=C(C[n+]3cc4cc(NC(=O)c5ccc(O)c(O)c5Cl)ccn4c3)CS[C@H]12)c1csc(N)n1)C(=O)O,4
5,CN(CC[N+]1(CC2=C(C(=O)[O-])N3C(=O)[C@@H](NC(=O)/C(=N\OC(C)(C)C(=O)O)c4csc(N)n4)[C@H]3SC2)CCCC1)C(=O)c1ccc(O)c(O)c1Cl,0.5
6,C[N+]1(CC2=C(C(=O)[O-])N3C(=O)[C@@H](NC(=O)/C(=N\OC[C@H](NC(=O)c4ccc(O)c(O)c4Cl)C(=O)O)c4csc(N)n4)[C@H]3SC2)CCCC1,2

# Test system: Stenotrophomonas maltophilia
# Assay: Antimicrobial activity against L-1 producing Stenotrophomonas maltophilia SR21970 in presence of human apo-transferrin by broth microdilution method
# Assay type: functional
row,Compound,MIC [µg/mL]
1,CC(C)(O/N=C(\C(=O)N[C@@H]1C(=O)N2C(C(=O)[O-])=C(C[N+]3(CCNC(=O)c4ccc(O)c(O)c4Cl)CCCCC3)CS[C@H]12)c1csc(N)n1)C(=O)O,0.25
2,CC(C)(O/N=C(\C(=O)N[C@@H]1C(=O)N2C(C(=O)[O-])=C(C[N+]3(CCNC(=O)c4ccc(O)c(O)c4Cl)CCCC3)CS[C@H]12)c1nc(N)sc1Cl)C(=O)O,2
3,CC(C)(O/N=C(\C(=O)N[C@@H]1C(=O)N2C(C(=O)[O-])=C(C[N+]3(CCCNC(=O)c4ccc(O)c(O)c4Cl)CCCC3)CS[C@H]12)c1csc(N)n1)C(=O)O,0.125
4,CC(C)(O/N=C(\C(=O)N[C@@H]1C(=O)N2C(C(=O)[O-])=C(C[n+]3cc4cc(NC(=O)c5ccc(O)c(O)c5Cl)ccn4c3)CS[C@H]12)c1csc(N)n1)C(=O)O,> 32
5,CN(CC[N+]1(CC2=C(C(=O)[O-])N3C(=O)[C@@H](NC(=O)/C(=N\OC(C)(C)C(=O)O)c4csc(N)n4)[C@H]3SC2)CCCC1)C(=O)c1ccc(O)c(O)c1Cl,0.25
6,C[N+]1(CC2=C(C(=O)[O-])N3C(=O)[C@@H](NC(=O)/C(=N\OC[C@H](NC(=O)c4ccc(O)c(O)c4Cl)C(=O)O)c4csc(N)n4)[C@H]3SC2)CCCC1,8

# Test system: Acinetobacter baumannii
# Assay: Antimicrobial activity against OXA-23/OXA-58 producing Acinetobacter baumannii SR27323 in presence of human apo-transferrin by broth microdilution method
# Assay type: functional
row,Compound,MIC [µg/mL]
1,CC(C)(O/N=C(\C(=O)N[C@@H]1C(=O)N2C(C(=O)[O-])=C(C[N+]3(CCNC(=O)c4ccc(O)c(O)c4Cl)CCCCC3)CS[C@H]12)c1csc(N)n1)C(=O)O,1
2,CC(C)(O/N=C(\C(=O)N[C@@H]1C(=O)N2C(C(=O)[O-])=C(C[N+]3(CCNC(=O)c4ccc(O)c(O)c4Cl)CCCC3)CS[C@H]12)c1nc(N)sc1Cl)C(=O)O,2
3,CC(C)(O/N=C(\C(=O)N[C@@H]1C(=O)N2C(C(=O)[O-])=C(C[n+]3cc4cc(NC(=O)c5ccc(O)c(O)c5Cl)ccn4c3)CS[C@H]12)c1csc(N)n1)C(=O)O,0.5

# Test system: Klebsiella pneumoniae
# Assay: Antimicrobial activity against KPC-2 producing Klebsiella pneumoniae ATCC BAA-1705 in presence of human apo-transferrin by broth microdilution method
# Assay type: functional
row,Compound,MIC [µg/mL]
1,CC(C)(O/N=C(\C(=O)N[C@@H]1C(=O)N2C(C(=O)[O-])=C(C[N+]3(CCNC(=O)c4ccc(O)c(O)c4Cl)CCCCC3)CS[C@H]12)c1csc(N)n1)C(=O)O,0.031
2,CC(C)(O/N=C(\C(=O)N[C@@H]1C(=O)N2C(C(=O)[O-])=C(C[N+]3(CCNC(=O)c4ccc(O)c(O)c4Cl)CCCC3)CS[C@H]12)c1nc(N)sc1Cl)C(=O)O,0.063
3,CC(C)(O/N=C(\C(=O)N[C@@H]1C(=O)N2C(C(=O)[O-])=C(C[n+]3cc4cc(NC(=O)c5ccc(O)c(O)c5Cl)ccn4c3)CS[C@H]12)c1csc(N)n1)C(=O)O,0.25

# Test system: Escherichia coli
# Assay: Antimicrobial activity against SHV-4 producing Escherichia coli ATCC BAA-200 in presence of human apo-transferrin by broth microdilution method
# Assay type: functional
row,Compound,MIC [µg/mL]
1,CC(C)(O/N=C(\C(=O)N[C@@H]1C(=O)N2C(C(=O)[O-])=C(C[N+]3(CCNC(=O)c4ccc(O)c(O)c4Cl)CCCCC3)CS[C@H]12)c1csc(N)n1)C(=O)O,0.5
2,CC(C)(O/N=C(\C(=O)N[C@@H]1C(=O)N2C(C(=O)[O-])=C(C[N+]3(CCNC(=O)c4ccc(O)c(O)c4Cl)CCCC3)CS[C@H]12)c1nc(N)sc1Cl)C(=O)O,1
3,CC(C)(O/N=C(\C(=O)N[C@@H]1C(=O)N2C(C(=O)[O-])=C(C[n+]3cc4cc(NC(=O)c5ccc(O)c(O)c5Cl)ccn4c3)CS[C@H]12)c1csc(N)n1)C(=O)O,4
